Patent US8304182B2, “Methods of identifying anti-cancer agents and uses thereof” (The Trustees of the University of Pennsylvania, priority 2003, dated 2012)

Experiments:
[1] = format: cell-based, mouse
ATP = test: Determination of cellular ATP; format: cell-based, mouse
bax^−/−bak^−/− MEFs = format: cell-based, mouse
[2] = system: Mouse bone marrow derived macrophages; format: cell-based
p53^−/− MEFs = format: cell-based, mouse

With `O=C1NCCc2c(OCCCCN3CCCCC3)cccc21` [DPQ] the “prevention of MNNG-induced NAD depletion” value [1] was “could be prevented” and the “prevention of MNNG-induced ATP depletion” value (ATP) was “could be prevented”.

In the case of `CN[C@@H]1C[C@H]2O[C@@](C)([C@@H]1OC)n1c3ccccc3c3c4c(c5c6ccccc6n2c5c31)C(=O)NC4` [staurosporine], the cell death (bax^−/−bak^−/− MEFs) is reported as “no cell death was observed”, the cell death (parp-1^−/− MEFs; parp-1^−/− cells, staurosporine, FIG. 3F) is reported as “killed” and the “TNFα production by macrophages” value [2] is reported as “failed to do so”. The “cell death (cell survival by PI exclusion)” value (p53^−/− MEFs) was “induced cell death”.

In the case of `COc1cc([C@@H]2c3cc4c(cc3[C@@H](O[C@@H]3O[C@@H]5CO[C@@H](C)O[C@H]5[C@H](O)[C@H]3O)[C@H]3COC(=O)[C@H]23)OCO4)cc(OC)c1O` [etoposide], the “cell death (cell survival by PI exclusion)” value (bax^−/−bak^−/− MEFs) is reported as “resistant” and the “cell death (cell survival by PI exclusion)” value (p53^−/− MEFs) is reported as “resistant”.

With `O=c1[nH]ccc2c(O)cccc12` [DHIQ] the “block of MNNG-induced cell death” value (bax^−/−bak^−/− MEFs) was “fully” and the “effect on MNNG-induced cell death rate” value (parp-1^−/− MEFs) was “did not affect the cell death rate”.
